Experimental data as given in PubChem BioAssay (NCI).
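The concentration for 50% growth inhibition is given as GI50. TGI: concentration producing complete growth inhibition.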

Experiments:
Experiment in all cases: NCI-60 cell line screen, 384-well format
[1] = tested on: MDA-MB-231 breast
[2] = tested on: SN12C renal
[3] = tested on: MALME-3M melanoma
[4] = tested on: OVCAR-4 ovarian
[5] = tested on: A498 renal
[6] = tested on: LOX IMVI melanoma
[7] = tested on: RXF 393 renal
[8] = tested on: SK-OV-3 ovarian
[9] = tested on: BT-549 breast
[10] = tested on: NCI/ADR-RES ovarian
[11] = tested on: DU-145 prostate
[12] = tested on: NCI-H460 NSCLC
[13] = tested on: UACC-257 melanoma
[14] = tested on: K-562 leukemia
[15] = tested on: SF-295 CNS
[16] = tested on: T-47D breast
[17] = tested on: PC-3 prostate
[18] = tested on: KM12 colon
[19] = tested on: A549 NSCLC
[20] = tested on: OVCAR-3 ovarian
[21] = tested on: OVCAR-5 ovarian
[22] = tested on: HOP-62 NSCLC
[23] = tested on: NCI-H226 lung
[24] = tested on: HCT-15 colon
[25] = tested on: 786-0 renal
[26] = tested on: NCI-H522 lung
[27] = tested on: RPMI-8226 leukemia
[28] = tested on: OVCAR-8 ovarian
[29] = tested on: SNB-75 CNS
[30] = tested on: HS 578T breast
[31] = tested on: MCF7 breast
[32] = tested on: NCI-H23 lung
[33] = tested on: MDA-MB-468 breast
[34] = tested on: IGROV1 ovarian
[35] = tested on: COLO 205 colon
[36] = tested on: SNB-19 CNS
[37] = tested on: SR leukemia
[38] = tested on: CAKI-1 renal
[39] = tested on: CCRF-CEM leukemia
[40] = tested on: NCI-H322M lung
[41] = tested on: HL-60(TB) leukemia
[42] = tested on: HCC-2998 colon
[43] = tested on: HOP-92 NSCLC
[44] = tested on: MDA-MB-435 melanoma
[45] = tested on: UACC-62 melanoma
[46] = tested on: SF-268 CNS
[47] = tested on: MOLT-4 leukemia
[48] = tested on: SW-620 colon
[49] = tested on: HT29 colon
[50] = tested on: SK-MEL-28 melanoma
[51] = tested on: SK-MEL-5 melanoma
[52] = tested on: UO-31 renal
[53] = tested on: SF-539 CNS
[54] = tested on: TK-10 renal
[55] = tested on: ACHN renal
[56] = tested on: EKVX NSCLC
[57] = tested on: M14 melanoma

SMILES: C[C@@H](CO)NC(=O)c1cc(-c2ccc(Cl)cc2)nn(-c2cnn(C)c2)c1=O
- GI50 [1]: 30 µM
- TGI [1]: > 100 µM
- GI50 [2]: 24.3 µM
- TGI [2]: 78.6 µM
- GI50 [3]: 13.4 µM
- TGI [3]: 34.1 µM
- GI50 [4]: 25.5 µM
- TGI [4]: 69.6 µM
- GI50 [5]: 14.4 µM
- TGI [5]: 28.7 µM
- GI50 [6]: 17.1 µM
- TGI [6]: 30.9 µM
- GI50 [7]: 15.2 µM
- TGI [7]: 53.4 µM
- GI50 [8]: 27.3 µM
- TGI [8]: 72.7 µM
- GI50 [9]: 16.1 µM
- TGI [9]: 33.8 µM
- GI50 [10]: 19.3 µM
- TGI [10]: 44.4 µM
- GI50 [11]: 16.9 µM
- TGI [11]: 36 µM
- GI50 [12]: 13.8 µM
- TGI [12]: 33.4 µM
- GI50 [13]: 24.9 µM
- TGI [13]: 40.1 µM
- GI50 [14]: 18.5 µM
- TGI [14]: 34.3 µM
- GI50 [15]: 18.5 µM
- TGI [15]: 41.2 µM
- GI50 [16]: 26.9 µM
- TGI [16]: 67.9 µM
- GI50 [17]: 24.4 µM
- TGI [17]: 62.7 µM
- GI50 [18]: 35.2 µM
- TGI [18]: > 100 µM
- GI50 [19]: 17.7 µM
- TGI [19]: 37.5 µM
- GI50 [20]: 22.6 µM
- TGI [20]: 50.7 µM
- GI50 [21]: 32.2 µM
- TGI [21]: > 100 µM
- GI50 [22]: 17 µM
- TGI [22]: 40 µM
- GI50 [23]: 16.8 µM
- TGI [23]: 35 µM
- GI50 [24]: 27.1 µM
- TGI [24]: > 100 µM
- GI50 [25]: 17.1 µM
- TGI [25]: 61.3 µM
- GI50 [26]: 16.9 µM
- TGI [26]: 31.2 µM
- GI50 [27]: 13.8 µM
- TGI [27]: 27 µM
- GI50 [28]: 23.7 µM
- TGI [28]: 95.9 µM
- GI50 [29]: 25.8 µM
- TGI [29]: 93.1 µM
- GI50 [30]: 17.2 µM
- TGI [30]: 36.9 µM
- GI50 [31]: 15.8 µM
- TGI [31]: 29.4 µM
- GI50 [32]: 24.8 µM
- TGI [32]: 60.7 µM
- GI50 [33]: 16.7 µM
- TGI [33]: 32 µM
- GI50 [34]: 18.3 µM
- TGI [34]: 42.4 µM
- GI50 [35]: 23.7 µM
- TGI [35]: 87.2 µM
- GI50 [36]: 27.8 µM
- TGI [36]: 88.5 µM
- GI50 [37]: 10.7 µM
- TGI [37]: 22.7 µM
- GI50 [38]: 17.7 µM
- TGI [38]: 49.2 µM
- GI50 [39]: 13.4 µM
- TGI [39]: 29.7 µM
- GI50 [40]: 23.5 µM
- TGI [40]: 64 µM
- GI50 [41]: 16.5 µM
- TGI [41]: 30.1 µM
- GI50 [42]: 23.5 µM
- TGI [42]: 53.4 µM
- GI50 [43]: 10.2 µM
- TGI [43]: 43.7 µM
- GI50 [44]: 27.7 µM
- TGI [44]: 80.1 µM
- GI50 [45]: 11.5 µM
- TGI [45]: 23.7 µM
- GI50 [46]: 22.6 µM
- TGI [46]: 70.7 µM
- GI50 [47]: 1.87 µM
- TGI [47]: 3.63 µM
- GI50 [48]: 38.8 µM
- TGI [48]: > 100 µM
- GI50 [49]: 25.9 µM
- TGI [49]: > 100 µM
- GI50 [50]: 21.9 µM
- TGI [50]: 49.7 µM
- GI50 [51]: 12.6 µM
- TGI [51]: 25.3 µM
- GI50 [52]: 27.1 µM
- TGI [52]: > 100 µM
- GI50 [53]: 19.4 µM
- TGI [53]: 51.7 µM
- GI50 [54]: 16.7 µM
- TGI [54]: 63.3 µM
- GI50 [55]: 15.5 µM
- TGI [55]: 35.4 µM
- GI50 [56]: 27.3 µM
- TGI [56]: 77.9 µM
- GI50 [57]: 27.1 µM
- TGI [57]: 60.5 µM
